Measured values published in patent US20250144067A1, “PERSONALIZED STARVATION THERAPY FOR CANCER” (Faeth Therapeutics, Inc., priority 2021, published 2025).
Structures can show the parent of a compound that is named as a salt. Where two headings read alike, the source gives them in different places.

How the values were obtained:
[1] = system: NCI-H292 lung cancer cells; assay: FDA drug screening, complete media vs cholesterol-free media without statin (TABLE 1); format: cell-based, human
[2] = system: NCI-H292 lung cancer cells; assay: FDA drug screening, complete media vs cholesterol-free media with simvastatin (TABLE 2); format: cell-based, human
[3] = NCI-H292 cells, cholesterol-free media without statin, FDA drug library screen
[4] = NCI-H292 cells, complete media, FDA drug library screen
[5] = complete vs cholesterol-free media, >0 enhanced anti-cancer activity, about 0 neutral, <0 antagonist
[6] = complete media vs cholesterol-free media + simvastatin (0.04 μM), >0 enhanced anti-cancer activity, about 0 neutral, <0 antagonist
[7] = Complete minus Cholesterol-free, >0 enhanced anti-cancer activity, about 0 neutral, <0 antagonist
[8] = NCI-H292 cells, cholesterol-free media without statin
[9] = NCI-H292 cells, FDA library drug in cholesterol-free media with simvastatin 0.04 μM
[10] = NCI-H292 cells, FDA library drug in complete media
[11] = NCI-H292 cells, FDA drug library screen, cholesterol-free media with simvastatin 0.04 μM
[12] = complete media minus cholesterol-free media + simvastatin, >0 enhanced anti-cancer activity, about 0 neutral, <0 antagonist
[13] = complete vs cholesterol-free media, greater than 0 enhanced anti-cancer activity, about 0 neutral, below 0 antagonists
[14] = NCI-H292 cells, cholesterol-free media with simvastatin 0.04 μM, cell growth value in FDA drug screen
[15] = NCI-H292 cells, complete media, cell growth value in FDA drug screen
[16] = NCI-H292 cells, FDA drug library screen, complete media
[17] = Complete minus Cholesterol-free, greater than 0 enhanced anti-cancer activity, about 0 neutral, below 0 antagonist
[18] = NCI-H292 cells, FDA drug library screen, cholesterol-free media without statin
[19] = NCI-H292 cells in cholesterol-free media without statin
[20] = NCI-H292 cells in complete media

Question: Which results are given for CN1CCC(=C2c3ccccc3CCn3c(C=O)cnc32)CC1 [Alcaftadine]?
Answer: Cholesterol-free [1]: 1.45; Complete [1]: 1.003; Difference [1]: −0.45; Cholesterol-free media + simvastatin (0.04 μM) [2]: 1.165; Complete Media [2]: 0.9908; Difference [2]: −0.17

Question: With CCc1cc2c(cc1N1CCC(N3CCOCC3)CC1)C(C)(C)c1[nH]c3cc(C#N)ccc3c1C2=O [Alectinib (Hydrochloride)] as the compound, how does the Cholesterol-free [1, 3] read?
Answer: Its Cholesterol-free is 0.7945.

Question: What about the Complete [1, 4] of the same compound?
Answer: The Complete was 1.394.

Question: And the Difference [1, 5]?
Answer: Its Difference is 0.60.

Question: And the “Cholesterol-free media + simvastatin (0.04 μM)” value ([2]; NCI-H292 cells, drug in cholesterol-free media with simvastatin 0.04 μM)?
Answer: Its value is 0.8676.

Question: And the “Complete Media” value ([2]; NCI-H292 cells, drug in complete media)?
Answer: Its value is 0.6682.

Question: What about the Difference [2, 6] of the same compound?
Answer: Its Difference is −0.20.

Question: How did the Difference [1, 7] turn out when CCc1cc2c(cc1N1CCC(N3CCOCC3)CC1)C(C)(C)c1[nH]c3cc(C#N)ccc3c1C2=O [Alectinib] was run?
Answer: Its Difference is −0.21.

Question: And the Cholesterol-free [1, 8]?
Answer: Its Cholesterol-free is 1.125.

Question: And the Complete ([1]; NCI-H292 cells, complete media)?
Answer: The Complete was 0.9146.

Question: What about the “Cholesterol-free media + simvastatin (0.04 μM)” value [2, 9] of the same compound?
Answer: Its value is 1.385.

Question: And the “Complete Media” value [2, 10]?
Answer: The value was 1.02.

Question: And the Difference [2, 6]?
Answer: The Difference was −0.37.

Question: NCCCC(O)(P(=O)(O)O)P(=O)(O)O [Alendronate (sodium hydrate)] was tested. Which Cholesterol-free [1, 3] did it give?
Answer: Its Cholesterol-free is 0.1249.

Question: What about the Complete [1, 4] of the same compound?
Answer: The Complete was 0.2776.

Question: And the Difference [1, 5]?
Answer: The Difference was 0.15.

Question: And the “Cholesterol-free media + simvastatin (0.04 μM)” value [2, 11]?
Answer: The value was 0.388.

Question: What about the Difference [2, 12] of the same compound?
Answer: Its Difference is 0.78.

Question: For NCCCC(O)(P(=O)(O)O)P(=O)(O)O [Alendronic acid], which Cholesterol-free [1, 8] is on record?
Answer: Its Cholesterol-free is 1.207.

Question: What about the Complete ([1]; NCI-H292 cells, complete media) of the same compound?
Answer: The Complete was 0.7802.

Question: And the Difference [1, 13]?
Answer: Its Difference is −0.43.

Question: And the “Cholesterol-free media + simvastatin (0.04 μM)” value [2, 14]?
Answer: The value was 0.8926.

Question: What about the “Complete Media” value [2, 15] of the same compound?
Answer: The value was 0.9547.

Question: And the Difference [2, 12]?
Answer: Its Difference is 0.06.

Question: COc1cc2nc(N(C)CCCNC(=O)C3CCCO3)nc(N)c2cc1OC (centres unmarked) [Alfuzosin (hydrochloride)] was tested. Which Difference [1, 7] did it give?
Answer: Its Difference is −0.22.

Question: What about the Cholesterol-free [1, 8] of the same compound?
Answer: Its Cholesterol-free is 1.203.

Question: What about the Complete ([1]; NCI-H292 cells, complete media) of the same compound?
Answer: Its Complete is 0.9827.

Question: What about the “Cholesterol-free media + simvastatin (0.04 μM)” value [2, 11] of the same compound?
Answer: Its value is 0.7758.

Question: What about the “Complete Media” value [2, 16] of the same compound?
Answer: The value was 1.007.

Question: And the Difference [2, 12]?
Answer: Its Difference is 0.23.

Question: Which results are given for COc1cc2nc(N(C)CCCNC(=O)C3CCCO3)nc(N)c2cc1OC (centres unmarked) [Alfuzosin]?
Answer: Difference [1, 17]: −0.14; Cholesterol-free [1, 18]: 0.9745; Complete [1, 16]: 0.8372; Cholesterol-free media + simvastatin (0.04 μM) [2, 11]: 1.185; Complete Media [2, 16]: 1.024; Difference [2, 6]: −0.16

Question: For C=CCc1cc(OC)c(O)c(C(=O)NCCO)c1 [Alibendol], which Difference [1, 7] is on record?
Answer: Its Difference is −0.25.

Question: What about the Cholesterol-free [1, 8] of the same compound?
Answer: The Cholesterol-free was 1.047.

Question: And the Complete ([1]; NCI-H292 cells, complete media)?
Answer: Its Complete is 0.797.

Question: What about the “Cholesterol-free media + simvastatin (0.04 μM)” value [2, 11] of the same compound?
Answer: Its value is 0.9518.

Question: What about the “Complete Media” value [2, 16] of the same compound?
Answer: The value was 0.8774.

Question: What about the Difference [2, 6] of the same compound?
Answer: Its Difference is −0.07.

Question: With COCCCOc1cc(C[C@@H](C[C@H](N)[C@@H](O)C[C@H](C(=O)NCC(C)(C)C(N)=O)C(C)C)C(C)C)ccc1OC [Aliskiren] as the compound, how does the Difference ([1]; Complete minus Cholesterol-free, greater than 0 enhanced anti-cancer activity, about 0 neutral, below 0 antagonists) read?
Answer: Its Difference is −0.67.

Question: What about the Cholesterol-free [1, 19] of the same compound?
Answer: Its Cholesterol-free is 1.754.

Question: And the Complete [1, 20]?
Answer: The Complete was 1.084.

Question: And the “Cholesterol-free media + simvastatin (0.04 μM)” value [2, 9]?
Answer: Its value is 1.326.

Question: And the “Complete Media” value [2, 10]?
Answer: The value was 0.8268.

Question: What about the Difference [2, 6] of the same compound?
Answer: The Difference was −0.50.

Question: Which Cholesterol-free [1, 8] does the source give for C=CCN1CCCC1CNC(=O)c1cc2[nH]nnc2cc1OC (centres unmarked) [Alizapride hydrochloride] here?
Answer: Its Cholesterol-free is 1.222.

Question: And the Complete ([1]; NCI-H292 cells, complete media)?
Answer: Its Complete is 0.9062.

Question: And the Difference [1, 13]?
Answer: Its Difference is −0.32.

Question: What about the “Cholesterol-free media + simvastatin (0.04 μM)” value [2, 14] of the same compound?
Answer: Its value is 1.019.

Question: And the “Complete Media” value [2, 15]?
Answer: The value was 1.057.

Question: And the Difference [2, 12]?
Answer: The Difference was 0.04.

Question: How did the Difference [1, 17] turn out when NC(=O)NC1NC(=O)NC1=O (centres unmarked) [Allantoin] was run?
Answer: Its Difference is −0.09.

Question: What about the Cholesterol-free [1, 18] of the same compound?
Answer: Its Cholesterol-free is 0.5704.

Question: And the Complete [1, 16]?
Answer: Its Complete is 0.4823.

Question: And the “Cholesterol-free media + simvastatin (0.04 μM)” value [2, 9]?
Answer: Its value is 1.146.

Question: And the “Complete Media” value [2, 10]?
Answer: The value was 0.6387.

Question: What about the Difference [2, 6] of the same compound?
Answer: Its Difference is −0.51.

Question: Oc1ncnc2[nH]ncc12 [Allopurinol] was tested. Which Difference [1, 7] did it give?
Answer: Its Difference is −0.29.

Question: And the Cholesterol-free [1, 8]?
Answer: Its Cholesterol-free is 1.198.

Question: And the Complete ([1]; NCI-H292 cells, complete media)?
Answer: The Complete was 0.9095.

Question: What about the “Cholesterol-free media + simvastatin (0.04 μM)” value [2, 14] of the same compound?
Answer: Its value is 0.8896.

Question: And the “Complete Media” value [2, 15]?
Answer: The value was 0.9734.

Question: And the Difference [2, 12]?
Answer: The Difference was 0.08.

Question: For C=CC[C@]1(O)CC[C@H]2[C@@H]3CCC4=CCCC[C@@H]4[C@H]3CC[C@@]21C [Allylestrenol], which Difference ([1]; Complete minus Cholesterol-free, […]) is on record?
Answer: The Difference was −0.56.

Question: What about the Cholesterol-free [1, 19] of the same compound?
Answer: Its Cholesterol-free is 1.739.

Question: And the Complete [1, 20]?
Answer: Its Complete is 1.181.

Question: What about the “Cholesterol-free media + simvastatin (0.04 μM)” value ([2]; NCI-H292 cells, cholesterol-free media with simvastatin 0.04 μM, […]) of the same compound?
Answer: The value was 1.288.

Question: And the “Complete Media” value ([2]; NCI-H292 cells, complete media, […])?
Answer: The value was 1.384.

Question: What about the Difference ([2]; complete media minus cholesterol-free media + simvastatin, […]) of the same compound?
Answer: The Difference was 0.10.

Question: With C=CCNc1nc(NCC=C)nc(N2CCN(C(c3ccc(F)cc3)c3ccc(F)cc3)CC2)n1 [Almitrine mesylate] as the compound, how does the Cholesterol-free [1, 3] read?
Answer: Its Cholesterol-free is 0.7257.

Question: And the Complete [1, 4]?
Answer: Its Complete is 0.8177.

Question: What about the Difference [1, 5] of the same compound?
Answer: The Difference was 0.09.

Question: What about the “Cholesterol-free media + simvastatin (0.04 μM)” value [2, 11] of the same compound?
Answer: Its value is 0.7616.

Question: What about the “Complete Media” value [2, 16] of the same compound?
Answer: The value was 0.6708.

Question: What about the Difference [2, 6] of the same compound?
Answer: The Difference was −0.09.

Question: Which results are given for C=CC(=O)Nc1cc(Nc2nccc(-c3cn(C4CC4)c4ccccc34)n2)c(OC)cc1N(C)CCN(C)C [Almonertinib (hydrochloride)]?
Answer: Difference [1, 7]: −0.07; Cholesterol-free [1, 3]: 0.4284; Complete [1, 4]: 0.3618; Cholesterol-free media + simvastatin (0.04 μM) [2, 14]: 0.6861; Complete Media [2, 15]: 0.7198; Difference [2, 12]: 0.03
